Laboratory results from ChEMBL document CHEMBL3608227, “Synthesis and anti-tubercular activity of 2-nitroimidazooxazines with modification at the C-7 position as PA-824 analogs” (Bioorg Med Chem Lett, 2015).
In brackets after ≈: the same amount, converted by molar mass.

What follows are molecules tested on Mycobacterium tuberculosis (assay: Potency index, ratio of IC50 for PA-824 to IC50 for test compound against Mycobacterium tuberculosis H37Rv).
Type: functional

| SMILES | Ratio IC50 |
| --- | --- |
| O=[N+]([O-])c1cn2c(n1)O[C@@H](CCOCc1ccc(OC(F)(F)F)cc1)CC2 | 5 |
| O=[N+]([O-])c1cn2c(n1)O[C@@H](CCOCc1ccc(-c3ccccc3)cc1)CC2 | 2 |

These molecules were tested on Mycobacterium tuberculosis (assay: Anti-tubercular activity against Mycobacterium tuberculosis).
Type: functional, organism-based

| SMILES | IC50 [µM] |
| --- | --- |
| O=[N+]([O-])c1cn2c(n1)OC[C@H](OCc1ccc(OC(F)(F)F)cc1)C2 | 0.16 |
| O=[N+]([O-])c1cn2c(n1)OC[C@@H](OCc1ccc(OC(F)(F)F)cc1)C2 [PRETOMANID] | 0.9 |

These molecules were tested on Mycobacterium tuberculosis (assay: Potency index, ratio of IC50 for PA-824 to IC50 for test compound against Mycobacterium tuberculosis).
Type: functional

| SMILES | Ratio IC50 |
| --- | --- |
| O=[N+]([O-])c1cn2c(n1)OC[C@H](OCc1ccc(OC(F)(F)F)cc1)C2 | 6 |

The molecules below were run on Mycobacterium tuberculosis (assay: Anti-tubercular activity against Mycobacterium tuberculosis H37Rv incubated at 37 degC by microscopy).
Type: functional

| SMILES | MIC99 [µM] |
| --- | --- |
| O=[N+]([O-])c1cn2c(n1)O[C@@H](CCOCc1ccc(OC(F)(F)F)cc1)CC2 | 0.078 (≈ 0.0302 µg/mL) |
| O=[N+]([O-])c1cn2c(n1)O[C@H](CCOCc1ccc(OC(F)(F)F)cc1)CC2 | 0.39 (≈ 0.151 µg/mL) |
| CC(C)(C)c1ccc(COCC[C@H]2CCn3cc([N+](=O)[O-])nc3O2)cc1 | 0.39 (≈ 0.14 µg/mL) |
| O=[N+]([O-])c1cn2c(n1)O[C@@H](CCOCc1ccc(Br)cc1)CC2 | 0.39 (≈ 0.149 µg/mL) |
| O=[N+]([O-])c1cn2c(n1)O[C@@H](CCOCc1ccc(Cl)cc1)CC2 | 0.39 (≈ 0.132 µg/mL) |
| O=[N+]([O-])c1cn2c(n1)O[C@@H](CCOCc1ccc(C(F)(F)F)cc1)CC2 | 0.195 (≈ 0.0724 µg/mL) |
| O=[N+]([O-])c1cn2c(n1)O[C@@H](CCOCc1ccc(-c3ccccc3)cc1)CC2 | 0.195 (≈ 0.074 µg/mL) |
| O=[N+]([O-])c1cn2c(n1)O[C@@H](CCOc1ccc(OC(F)(F)F)cc1)CC2 | 0.098 (≈ 0.0366 µg/mL) |
| O=[N+]([O-])c1cn2c(n1)O[C@@H](CCOc1ccccc1)CC2 | 3.12 (≈ 0.904 µg/mL) |
| O=[N+]([O-])c1cn2c(n1)O[C@@H](CCOc1ccc(Cl)cc1)CC2 | 0.39 (≈ 0.126 µg/mL) |
| O=[N+]([O-])c1cn2c(n1)O[C@@H](CCOc1ccc(C(F)(F)F)cc1)CC2 | 0.195 (≈ 0.0697 µg/mL) |
| O=[N+]([O-])c1cn2c(n1)O[C@@H](CCOc1ccc(OCc3ccccc3)cc1)CC2 | 0.078 (≈ 0.0308 µg/mL) |
| O=[N+]([O-])c1cn2c(n1)O[C@H](CCOc1ccc(OCc3ccccc3)cc1)CC2 | 0.078 (≈ 0.0308 µg/mL) |
| O=[N+]([O-])c1cn2c(n1)O[C@@H](CCOc1ccc(-c3ccccc3)cc1)CC2 | 0.078 (≈ 0.0285 µg/mL) |
| O=[N+]([O-])c1cn2c(n1)O[C@@H](CCOc1ccc(-c3ccc(F)cc3)cc1)CC2 | 0.05 (≈ 0.0192 µg/mL) |
| O=C(OCC[C@H]1CCn2cc([N+](=O)[O-])nc2O1)OCc1ccc(OC(F)(F)F)cc1 | 0.078 (≈ 0.0336 µg/mL) |
| O=C(OCC[C@@H]1CCn2cc([N+](=O)[O-])nc2O1)OCc1ccc(OC(F)(F)F)cc1 | 1.56 (≈ 0.673 µg/mL) |
| O=C(OCC[C@H]1CCn2cc([N+](=O)[O-])nc2O1)OCc1cccc(OC(F)(F)F)c1 | 0.78 (≈ 0.336 µg/mL) |
| O=C(OCC[C@H]1CCn2cc([N+](=O)[O-])nc2O1)OCc1ccccc1OC(F)(F)F | 0.39 (≈ 0.168 µg/mL) |
| O=C(OCC[C@H]1CCn2cc([N+](=O)[O-])nc2O1)OCc1ccc(Cl)cc1 | 0.195 (≈ 0.0744 µg/mL) |
| O=C(OCC[C@H]1CCn2cc([N+](=O)[O-])nc2O1)OCc1ccc(C(F)(F)F)cc1 | 0.39 (≈ 0.162 µg/mL) |
| O=C(Nc1ccc(Cl)cc1)OCC[C@H]1CCn2cc([N+](=O)[O-])nc2O1 | 0.195 (≈ 0.0715 µg/mL) |
| O=C(Nc1ccc(-c2ccc(OC(F)(F)F)cc2)cc1)OCC[C@H]1CCn2cc([N+](=O)[O-])nc2O1 | 0.195 (≈ 0.096 µg/mL) |
| O=[N+]([O-])c1cn2c(n1)OC[C@@H](OCc1ccc(OC(F)(F)F)cc1)C2 [PRETOMANID] | 0.39 (≈ 0.14 µg/mL) |
